In US20100041597A1, “PEPTIDES TARGETED TO PROTEIN KINASE C ISOFORMS AND USES THEREOF” (priority 2005, published 2010):

What was measured:
[1] = molecular target: T1, PKC-α (Homo sapiens, UniProt P17252); test: In vitro competition with anti-PKC-α antibody on blotted cell lysate, Protocol A, IMR-32 cells; format: binding; design: subcellular localisation of endogenous PKC-α in IMR-32 cells; endogenous in cells; host or cells: IMR-32
Method: The ability of the peptides to interfere with the binding of a PKC-α-specific monoclonal antibody to PKC-α was determined using the following protocol.
Cell lysates from either IMR-32 (human neuroblastoma) cells or C6Cx43 cells (rat glioma transfected cells overexpressing connexin 43) were obtained using standard protocols and the proteins of the lysate were separated by SDS PAGE electrophoresis and electrotransferred onto a nitrocellulose membrane. […] A primary polyclonal antibody specific for PKC-α (Santa Cruz Biotechnology, Inc., CA) was then added (15 μg/ml) and the membrane incubated for a further 45 minutes. Finally, the primary antibody was detected with a secondary antibody conjugated to alkaline phosphatase using standard procedures. The intensity of the band corresponding to PKC-α was assessed by scanning and densitometry using the Gel-Pro software (Media Cybernetics) to obtain relative band intensities (average of 3 replicas). Control assays were conducted as described above except that blocking buffer without peptide was used.
The results are expressed as relative band intensity and as a percentage of the intensity of the corresponding band in the control assay (“Relative intensity (%)”). “% inhibition” relates to the percentage of the PKC-α band that is inaccessible to the antibody.

[2] = molecular target: T1, PKC-α; test: In vitro competition with anti-PKC-α antibody, Protocol B (peptide added to cell extract before electrophoresis), IMR-32 cells; format: binding; design: subcellular localisation of endogenous PKC-α in IMR-32 cells; endogenous in cells; host or cells: IMR-32; details: for Inhibition (%) / Relative Intensity (%): Table 9
Method: (§1) Peptides PRE 3 and PRE 4 (see Table 3) were tested for their ability to interfere with the binding of isoform-specific polyclonal antibodies (Santa Cruz Biotechnology, Inc.) to PKC-α, PKC-βI or PKC-βII using the general protocol described in Example 3.

[3] = molecular target: T1, PKC-α; test: Subcellular localisation of PKC-α in IMR-32 cells; format: cell-based; design: subcellular localisation of endogenous PKC-α in IMR-32 cells; endogenous in cells; host or cells: IMR-32; details: 10 mg/ml, pinocytic endocytosis
Method: Peptides PRE 3 or PRE 4 (10 mg/ml) were introduced into human neuroblastoma cells (IMR-32) by pinocytic endocytosis. The cells were fixed and stained with rabbit PKC-A primary antibody and anti-rabbit Alexa-488 or Alexa-800 secondary antibody.
In most of the cells PKC-α can be seen to be located in the cytoplasm, around the nucleus and at the plasma membrane (where it becomes activated).

[4] = molecular target: PKC-βII (Homo sapiens, UniProt P05771); test: In vitro competition with anti-PKC-βII antibody, Protocol B, IMR-32 cells; format: binding; design: PRE 3 and PRE 4 in IMR-32 Neuroblastoma Cells: Protocol B; endogenous in cells; host or cells: IMR-32; details: PKC-βII; for Band Intensity: control band intensity 98.6, Table 9
Method: as §1

[5] = molecular target: PKC-βI (Homo sapiens, UniProt P05771); test: In vitro competition with anti-PKC-βI antibody, Protocol B, IMR-32 cells; format: binding; design: PRE 3 and PRE 4 in IMR-32 Neuroblastoma Cells: Protocol B; endogenous in cells; host or cells: IMR-32; details: PKC-βI; for Band Intensity: control band intensity 170.5, Table 9
Method: (§2) The ability of the peptides PRE 2 and PRE 3 (see Table 3) to interfere with the binding of a PKC-α-specific polyclonal antibody (Santa Cruz Biotechnology, Inc.) to PKC-α was determined using a modified version of the protocol outlined above in which the test peptide was added directly to the cell extract prior to electrophoresis at a concentration of either 5× or 15× the concentration of the protein applied to each well of the gel for the Western blots (20 μg).
as §1

[6] = system: PKC-ε; test: In vitro competition with anti-PKC-ε antibody, Protocol B, IMR-32 cells; format: binding, human
Method: as §2
Peptides PRE 2, PRE 3 and PRE 4 (see Table 3) were tested for their ability to interfere with the binding of isoform-specific polyclonal antibodies (Santa Cruz Biotechnology, Inc.) to PKC-ε using the general protocol described in Example 3. Two bands, representing alternate splicing variants of PKC-ε, were identified on the Western blot using this anti-PKC-ε antibody.

[7] = 100 μg, Table 9, read-out: Relative Intensity (%)
[8] = 200 μg, Table 9, read-out: Relative Intensity (%)
[9] = 300 μg, Table 9, read-out: Relative Intensity (%)

PKC-βI, sequence (P05771 whole entry): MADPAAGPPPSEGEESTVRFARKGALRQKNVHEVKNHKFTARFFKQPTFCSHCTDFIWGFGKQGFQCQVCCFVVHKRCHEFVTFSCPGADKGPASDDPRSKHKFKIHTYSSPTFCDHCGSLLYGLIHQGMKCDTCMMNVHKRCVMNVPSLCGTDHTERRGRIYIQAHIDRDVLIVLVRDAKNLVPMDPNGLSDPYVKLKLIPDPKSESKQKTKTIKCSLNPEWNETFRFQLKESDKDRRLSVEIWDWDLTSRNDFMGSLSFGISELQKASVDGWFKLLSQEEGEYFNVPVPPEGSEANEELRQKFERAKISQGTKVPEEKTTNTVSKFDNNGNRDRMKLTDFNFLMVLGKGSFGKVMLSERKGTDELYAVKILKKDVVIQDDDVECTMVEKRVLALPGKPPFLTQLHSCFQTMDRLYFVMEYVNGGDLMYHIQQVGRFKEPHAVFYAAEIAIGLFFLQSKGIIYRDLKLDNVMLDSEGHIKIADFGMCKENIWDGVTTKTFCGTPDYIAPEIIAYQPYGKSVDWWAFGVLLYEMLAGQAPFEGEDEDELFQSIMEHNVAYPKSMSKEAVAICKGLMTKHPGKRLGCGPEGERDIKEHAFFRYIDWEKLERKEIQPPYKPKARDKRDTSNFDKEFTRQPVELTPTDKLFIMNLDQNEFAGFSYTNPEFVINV
PKC-βII, sequence (P05771 1-673 isoform P05771-2): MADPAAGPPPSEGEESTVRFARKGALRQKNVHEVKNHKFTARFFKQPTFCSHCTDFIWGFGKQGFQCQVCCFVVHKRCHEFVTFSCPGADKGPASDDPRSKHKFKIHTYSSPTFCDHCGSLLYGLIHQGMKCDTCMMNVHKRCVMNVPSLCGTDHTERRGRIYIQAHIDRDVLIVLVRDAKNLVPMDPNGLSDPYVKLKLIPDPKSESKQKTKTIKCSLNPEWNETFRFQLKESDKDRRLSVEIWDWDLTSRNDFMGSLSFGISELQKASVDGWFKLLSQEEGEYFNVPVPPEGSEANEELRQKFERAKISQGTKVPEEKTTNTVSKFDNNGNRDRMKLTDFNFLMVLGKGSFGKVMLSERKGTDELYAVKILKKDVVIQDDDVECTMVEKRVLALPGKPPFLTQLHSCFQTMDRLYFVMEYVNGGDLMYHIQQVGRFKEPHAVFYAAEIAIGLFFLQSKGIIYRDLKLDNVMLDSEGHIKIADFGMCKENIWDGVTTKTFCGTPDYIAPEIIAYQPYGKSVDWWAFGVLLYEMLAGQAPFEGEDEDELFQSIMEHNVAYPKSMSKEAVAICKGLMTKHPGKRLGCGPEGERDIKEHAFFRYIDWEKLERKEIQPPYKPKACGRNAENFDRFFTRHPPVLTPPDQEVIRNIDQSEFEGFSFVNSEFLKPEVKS

Band Intensity ([1]; 75 μg, IMR-32 Cells, Table 5): 0.889 | inhibition at 0.075 mg ([1]; 75 μg, IMR-32 Cells, Table 5): 0.7% | remaining activity at 0.075 mg ([1]; 75 μg, IMR-32 Cells, Table 5, read-out: Relative Intensity (%)): 99.3% | Band Intensity ([1]; 300 μg, IMR-32 Cells, Table 5): 0.922 | inhibition at 0.3 mg ([1]; 300 μg, IMR-32 Cells, Table 5): 0% | remaining activity at 0.3 mg ([1]; 300 μg, IMR-32 Cells, Table 5, read-out: Relative Intensity (%)): 103% | Band Intensity ([1]; 600 μg, IMR-32 Cells, Table 5): 0.888 | inhibition at 0.6 mg ([1]; 600 μg, IMR-32 Cells, Table 5): 0% | remaining activity at 0.6 mg ([1]; 600 μg, IMR-32 Cells, Table 5, read-out: Relative Intensity (%)): 99.2% | Band Intensity ([1]; 3.75 mg, IMR-32 Cells, Table 5): 0.600 | remaining activity at 3.75 mg ([1]; 3.75 mg, IMR-32 Cells, Table 5, read-out: Relative Intensity (%)): 102% | Band Intensity ([1]; 5.25 mg, IMR-32 Cells, Table 5): 0.603 | remaining activity at 5.25 mg ([1]; 5.25 mg, IMR-32 Cells, Table 5, read-out: Relative Intensity (%)): 102% | Band Intensity ([1]; 7.5 mg, IMR-32 Cells, Table 5): 0.609 | inhibition at 7.5 mg ([1]; 7.5 mg, IMR-32 Cells, Table 5): 0% | remaining activity at 7.5 mg ([1]; 7.5 mg, IMR-32 Cells, Table 5, read-out: Relative Intensity (%)): 103% | Band Intensity ([2]; 100 μg, PKC-α, IMR-32, Table 7): 0.0 | inhibition at 0.1 mg ([2]; 100 μg, PKC-α, IMR-32, Table 7): 100% | remaining activity at 0.1 mg ([2]; 100 μg, PKC-α, IMR-32, Table 7, read-out: Relative Intensity (%)): 0% | Inhibition (%) ([2]; 100 μg, PKC-α): 100.0% | Relative Intensity (%) ([2]; 100 μg, PKC-α): 0.0% | Band Intensity ([2]; 100 μg, PKC-α, control band intensity 302.5, Table 9): 0.0 | Band Intensity ([2]; 200 μg, PKC-α, IMR-32, Table 7): 0.0 | inhibition at 0.2 mg ([2]; 200 μg, PKC-α, IMR-32, Table 7): 100% | remaining activity at 0.2 mg ([2]; 200 μg, PKC-α, IMR-32, Table 7, read-out: Relative Intensity (%)): 0% | Inhibition (%) ([2]; 200 μg, PKC-α): 100.0% | Relative Intensity (%) ([2]; 200 μg, PKC-α): 0.0% | Band Intensity ([2]; 200 μg, PKC-α, control band intensity 302.5, Table 9): 0.0 | Band Intensity ([2]; 300 μg, PKC-α, IMR-32, Table 7): 0.0 | inhibition at 0.3 mg ([2]; 300 μg, PKC-α, IMR-32, Table 7): 100% | remaining activity at 0.3 mg ([2]; 300 μg, PKC-α, IMR-32, Table 7, read-out: Relative Intensity (%)): 0% | Inhibition (%) ([2]; 300 μg, PKC-α): 100.0% | Relative Intensity (%) ([2]; 300 μg, PKC-α): 0.0% | Band Intensity ([2]; 300 μg, PKC-α, control band intensity 302.5, Table 9): 0.0 | inhibition at 0.1 mg ([4]; 100 μg, Table 9): 100% | remaining activity at 0.1 mg [4, 7]: 0% | Band Intensity ([4]; 100 μg): 0.0 | inhibition at 0.2 mg ([4]; 200 μg, Table 9): 100% | remaining activity at 0.2 mg [4, 8]: 0% | Band Intensity ([4]; 200 μg): 0.0 | inhibition at 0.3 mg ([4]; 300 μg, Table 9): 100% | remaining activity at 0.3 mg [4, 9]: 0% | Band Intensity ([4]; 300 μg): 0.0 | inhibition at 0.1 mg ([5]; 100 μg, Table 9): 100% | remaining activity at 0.1 mg [5, 7]: 0% | Band Intensity ([5]; 100 μg): 0.0 | inhibition at 0.2 mg ([5]; 200 μg, Table 9): 100% | remaining activity at 0.2 mg [5, 8]: 0% | Band Intensity ([5]; 200 μg): 0.0 | inhibition at 0.3 mg ([5]; 300 μg, Table 9): 100% | remaining activity at 0.3 mg [5, 9]: 0% | Band Intensity ([5]; 300 μg): 0.0
Substance: Ac-AKGIQEVKGGDAQNLIGISI-NH2 [PRE 3]
effect on antibody binding to PKC-α ([1]; Protocol A): did not show an effect on antibody binding | effect on antibody binding to PKC-α [2]: effectively interfered with PKC-α antibody binding to PKC-α | effect on subcellular localisation of PKC-α [3]: does not alter the subcellular localisation of PKC-α | Band Intensity ([6]; 20 μg, PKC-ε Band 1, Table 10): 5.12 | Inhibition (%) ([6]; 20 μg, PKC-ε Band 1, Table 10): 99.0% | Relative Intensity (%) ([6]; 20 μg, PKC-ε Band 1, Table 10): 0.12% | Band Intensity ([6]; 20 μg, PKC-ε Band 2, Table 10): 0.0 | Inhibition (%) ([6]; 20 μg, PKC-ε Band 2, Table 10): 100.0% | Relative Intensity (%) ([6]; 20 μg, PKC-ε Band 2, Table 10): 0.0% | Band Intensity ([6]; 50 μg, PKC-ε Band 1, Table 10): 0.0 | Inhibition (%) ([6]; 50 μg, PKC-ε Band 1, Table 10): 100.0% | Relative Intensity (%) ([6]; 50 μg, PKC-ε Band 1, Table 10): 0.0% | Band Intensity ([6]; 50 μg, PKC-ε Band 2, Table 10): 0.0 | Inhibition (%) ([6]; 50 μg, PKC-ε Band 2, Table 10): 100.0% | Relative Intensity (%) ([6]; 50 μg, PKC-ε Band 2, Table 10): 0.0% | Band Intensity ([6]; 100 μg, PKC-ε Band 1, Table 10): 0.0 | Inhibition (%) ([6]; 100 μg, PKC-ε Band 1, Table 10): 100.0% | Relative Intensity (%) ([6]; 100 μg, PKC-ε Band 1, Table 10): 0.0% | Band Intensity ([6]; 100 μg, PKC-ε Band 2, Table 10): 0.0 | Inhibition (%) ([6]; 100 μg, PKC-ε Band 2, Table 10): 100.0% | Relative Intensity (%) ([6]; 100 μg, PKC-ε Band 2, Table 10): 0.0%
